In US20080045504A1, “Benzonitrile Derivatives to Treat Musculoskeletal Frailty” (PFIZER PRODUCTS INC., priority 2004, published 2008):

Molecular target: T1, recombinant human androgen receptor (hAR) (Homo sapiens, UniProt P10275)
T1 construct: made in house; host or cells: baculovirus/Sf9 insect cells (crude extract)
T1 sequence (P10275 1-920): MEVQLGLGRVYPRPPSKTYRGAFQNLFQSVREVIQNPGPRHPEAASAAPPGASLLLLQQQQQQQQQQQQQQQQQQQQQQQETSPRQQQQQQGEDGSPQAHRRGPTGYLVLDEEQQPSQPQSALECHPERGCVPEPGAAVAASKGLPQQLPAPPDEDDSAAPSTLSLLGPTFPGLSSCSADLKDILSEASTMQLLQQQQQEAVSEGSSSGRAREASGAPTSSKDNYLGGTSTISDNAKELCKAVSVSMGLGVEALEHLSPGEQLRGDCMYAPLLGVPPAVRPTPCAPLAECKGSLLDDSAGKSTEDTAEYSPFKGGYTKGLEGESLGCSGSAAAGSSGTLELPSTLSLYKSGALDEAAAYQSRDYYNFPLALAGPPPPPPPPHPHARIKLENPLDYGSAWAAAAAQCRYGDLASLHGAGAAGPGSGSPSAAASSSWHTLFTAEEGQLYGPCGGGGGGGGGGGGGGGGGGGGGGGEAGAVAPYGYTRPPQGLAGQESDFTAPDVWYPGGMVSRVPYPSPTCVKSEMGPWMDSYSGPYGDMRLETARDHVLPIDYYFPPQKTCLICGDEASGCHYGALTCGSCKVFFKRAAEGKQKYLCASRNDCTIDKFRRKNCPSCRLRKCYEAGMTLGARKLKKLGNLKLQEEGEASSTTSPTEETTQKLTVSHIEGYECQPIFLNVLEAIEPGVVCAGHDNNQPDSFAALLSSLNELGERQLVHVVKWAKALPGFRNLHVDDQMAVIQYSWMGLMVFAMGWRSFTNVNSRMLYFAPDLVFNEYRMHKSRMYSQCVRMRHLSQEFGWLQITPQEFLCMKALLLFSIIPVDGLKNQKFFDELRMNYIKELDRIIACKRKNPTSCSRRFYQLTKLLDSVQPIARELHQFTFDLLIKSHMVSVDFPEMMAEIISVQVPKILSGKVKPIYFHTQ
Assay: Human androgen receptor binding analysis (3H-DHT competitive binding)
Description: The following is a brief description of the assay that determines the affinity of a compound for the recombinant human androgen receptor (hAR). Competitive binding analysis is performed on baculovirus/Sf9 generated hAR extracts in the presence or absence of differing concentrations of drug and a fixed concentration of ^3H-dihydrotestosterone (^3H-DHT) as tracer. This binding assay method is a modification of a protocol previously described (Chang, et. al. J. Steroid Biochem. 20(1):11-17 1984). Briefly, progressively decreasing concentrations of compounds are incubated in the presence of hAR extract (Chang et al. P.N.A.S. Vol. 89, pp. 5546-5950, 1992), hydroxylapatite and 1 nM ^3H-DHT for one hour at 4° C. Subsequently, the binding reactions are washed three times to completely remove excess unbound ^3H-DHT. hAR bound ^3H-DHT levels are determined in the presence of compounds (=competitive binding) and compared to levels bound when no competitor is present (=maximum binding). Compound binding affinity to the hAR is expressed as the concentration of compound at which one half of the maximum binding is inhibited (the IC50).

CC[C@H]1CCCCN1c1ccc(C#N)c(C(F)(F)F)c1 [Example 1, 4-(2-(S)-Ethyl-piperidin-1-yl)-2-trifluoromethyl-benzonitrile]
IC50: 5.21 nM
